Results reported in patent publication US6100254A, “Inhibitors of protein tyrosine kinases” (Board of Regents, The University of Texas System, priority 1997, dated 2000).

Legend:
[1] = biological target: T1, Src (Homo sapiens, UniProt P12931); assay: Src tyrosine kinase activity, poly E4Y and 32P-ATP; assay type: biochemical
T1 construct: made in house; host or cells: baculovirus-insect cell system
Protocol: The compounds within the library were screened at a concentration of 100 μM using the following assay procedure. A 10 μL aliquot of poly(Glu:Tyr, 4:1) to final concentration of 200 μg/mL, 20 μL of benzodiazepine to be tested, 10 μL of purified Src and 10 μL of [gamma-^32 P]-ATP-MgCl2 cocktail (final concentration of 0.2 mM ATP; specific activity of 600 dpm/pmol, and 6 mM MgCl2) were mixed and incubated in 0.5 mL test tubes at ambient temperature. After 30 min, a 35 μL aliquot was spotted onto a 1×1 inch 3 MM filter paper and dropped into a 5% TCA bath at 60° C. The filter papers were washed 3 times with 5% TCA and air dried. The filter papers were then placed into a vial, 3 mL scintillation cocktail added, and analyzed by liquid scintillation counting.
(§1) The tyrosine kinase activity of Src, Lck (p56^lck), Csk (C-Src kinase), Abl (Bcr-Abl catalytic domain), and the FGFr (fibroblast growth factor receptor catalytic domain), was determined using poly E4 Y and ^32 P-ATP.

[2] = biological target: T2, Lck (p56^lck) (Mus musculus, UniProt P06240); assay: Lck tyrosine kinase activity, poly E4Y and 32P-ATP; assay type: biochemical
T2 construct: glutathione-S-transferase (GST) (N); made in house; host or cells: E. coli
Text: (§2) The genes encoding Csk, Lck, Abl, and the FGF receptor have all been cloned. The genes encoding Csk, Abl, and the FGF receptor were cloned from humans, and the genes encoding Lck were cloned from a mouse. Recombinant Csk, Lck, Abl, and the FGFr were expressed as glutathione-S-transferase fusion proteins using the pGEX expression vector and E. coli, and purified as described (Sun et al., 1995).
(§3) Recombinant Src was expressed using the baculovirus-insect cell system and purified as published (Budde et al, 1993). Recombinant Csk, Lck, Abl, and the FGFr were expressed as glutathione-S-transferase fusion proteins using the pGEX expression vector and E. coli, and purified as described (Sun and Budde, 1995).
as §1

[3] = tested on: HT-29 colon adenocarcinoma cells; assay: Growth of HT-29 cells, viable cell count; assay type: cell-based, human; settings: viable cell count 5 days after plating
Protocol: (§4) For these assays 2×10^4 cells are plated in 24 well multiwell tissue culture dishes, in 1 ml of DME/F12 media supplemented with 5% fetal bovine serum. After 24 h, media is replaced with fresh media containing the concentration of inhibitor to be tested, or no inhibitor as a control. Cells are counted 1, 3, and 5 days subsequent to addition of inhibitor. For the day 5 counts, media with fresh inhibitor is used to replace spent media after day 3. […] For counting viable cells, cultures are trypsinized, stained with trypan blue, and cell number determined by counting under light microscopy with the use of a hemacytometer. Benzodiazepine derivatives were tested at their maximally soluble concentrations in 0.1% DMSO diluted with tissue culture medium, and serial dilutions were made thereof. Every concentration tested was performed in triplicate, in identical wells under identical assay conditions.

[4] = biological target: Yes (Homo sapiens, UniProt P07947); assay: Enzyme panel: Yes; assay type: biochemical; settings: apparent value against variable poly E4Y
[5] = biological target: T3, Csk (C-Src kinase) (Homo sapiens, UniProt P41240); assay: Csk tyrosine kinase activity, poly E4Y and 32P-ATP; assay type: biochemical
T3 construct: glutathione-S-transferase (GST) (N); made in house; host or cells: E. coli
Text: as §2, §3, §1

[6] = biological target: protein kinase A (PKA) (Homo sapiens, UniProt P17612); assay: Enzyme panel: protein kinase A; assay type: biochemical
[7] = tested on: AFB-13 normal human fibroblasts; assay: Growth of AFB-13 cells, control for cellular toxicity; assay type: cell-based
Protocol: as §4

[8] = tested on: HT-29 colon adenocarcinoma cells; assay: Anchorage-independent growth, soft agar colony formation; assay type: cell-based, human
Protocol: Soft agar colony formation is used to determine anchorage independent growth, an in vitro parameter which correlates well with tumorigenicity of HT 29 cells. (AFB-13 cells are unable to form soft agar colonies, a characteristic of normal cells). These assays are performed in 6 well ([…]) multiwell tissue culture dishes. The wells are underlayed with 1% low melting agarose in complete growth media, and refrigerated for 15 min. 1×10^3 HT 29 cells are then added to the wells in complete media in 0.5% low melting agarose. […] After a 24 h incubation period, 0.5 mL of media containing compound to be tested (or media alone as a control) is added to the dish. During the assay, media with or without the test compound is replenished every 3 days. Colonies estimated to contain >100 cells are counted after 14 days. For compounds that induce growth inhibition, the assay is continued to 28 days to assure that differences in colony forming ability were not due to altered growth rate of cells. For initial screening, assays are performed in duplicate for each compound to be tested, due to the large amount of inhibitor required for the length of the study.

T1 sequence (P12931 whole entry, species assumed): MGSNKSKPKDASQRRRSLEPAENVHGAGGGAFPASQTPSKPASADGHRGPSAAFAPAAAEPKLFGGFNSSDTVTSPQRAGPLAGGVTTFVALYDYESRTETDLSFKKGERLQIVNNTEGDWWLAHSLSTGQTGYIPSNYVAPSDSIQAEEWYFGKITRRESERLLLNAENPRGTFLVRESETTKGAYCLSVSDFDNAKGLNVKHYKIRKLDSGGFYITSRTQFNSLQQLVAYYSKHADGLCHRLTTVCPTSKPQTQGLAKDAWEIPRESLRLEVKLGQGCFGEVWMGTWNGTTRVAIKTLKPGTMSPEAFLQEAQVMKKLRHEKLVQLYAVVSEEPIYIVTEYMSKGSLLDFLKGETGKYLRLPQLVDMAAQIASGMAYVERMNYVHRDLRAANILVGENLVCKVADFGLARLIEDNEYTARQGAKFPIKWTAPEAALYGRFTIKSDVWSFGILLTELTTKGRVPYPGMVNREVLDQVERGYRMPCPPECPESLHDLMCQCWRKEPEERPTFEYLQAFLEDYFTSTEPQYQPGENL
T3 sequence (P41240 whole entry): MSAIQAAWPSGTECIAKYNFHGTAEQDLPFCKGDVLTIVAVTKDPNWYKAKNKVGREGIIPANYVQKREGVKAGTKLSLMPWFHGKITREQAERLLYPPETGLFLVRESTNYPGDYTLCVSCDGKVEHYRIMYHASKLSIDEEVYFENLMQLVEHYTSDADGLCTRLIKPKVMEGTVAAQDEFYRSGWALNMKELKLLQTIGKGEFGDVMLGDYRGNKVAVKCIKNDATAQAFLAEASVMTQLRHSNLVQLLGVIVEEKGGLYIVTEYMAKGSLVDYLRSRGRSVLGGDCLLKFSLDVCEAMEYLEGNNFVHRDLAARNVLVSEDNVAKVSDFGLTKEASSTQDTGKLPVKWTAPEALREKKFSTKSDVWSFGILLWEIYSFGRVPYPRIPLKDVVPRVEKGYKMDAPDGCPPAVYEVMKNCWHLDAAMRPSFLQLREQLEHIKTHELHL
Yes, sequence (P07947 whole entry, species assumed): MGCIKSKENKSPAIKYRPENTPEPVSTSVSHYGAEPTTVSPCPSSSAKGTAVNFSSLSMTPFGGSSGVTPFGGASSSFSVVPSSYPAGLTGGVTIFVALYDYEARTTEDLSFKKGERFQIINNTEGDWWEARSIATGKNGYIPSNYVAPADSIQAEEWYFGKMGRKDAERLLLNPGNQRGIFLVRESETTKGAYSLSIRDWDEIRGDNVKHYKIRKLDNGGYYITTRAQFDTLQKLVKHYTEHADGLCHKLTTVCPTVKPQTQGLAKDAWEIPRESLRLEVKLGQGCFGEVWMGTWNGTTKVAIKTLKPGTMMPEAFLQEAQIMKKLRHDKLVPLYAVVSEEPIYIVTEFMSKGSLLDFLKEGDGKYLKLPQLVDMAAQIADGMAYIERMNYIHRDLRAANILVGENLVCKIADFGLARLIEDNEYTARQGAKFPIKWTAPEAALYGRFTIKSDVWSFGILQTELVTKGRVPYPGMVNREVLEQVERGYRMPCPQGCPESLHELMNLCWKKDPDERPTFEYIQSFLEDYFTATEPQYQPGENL
T2 sequence (P06240 whole entry): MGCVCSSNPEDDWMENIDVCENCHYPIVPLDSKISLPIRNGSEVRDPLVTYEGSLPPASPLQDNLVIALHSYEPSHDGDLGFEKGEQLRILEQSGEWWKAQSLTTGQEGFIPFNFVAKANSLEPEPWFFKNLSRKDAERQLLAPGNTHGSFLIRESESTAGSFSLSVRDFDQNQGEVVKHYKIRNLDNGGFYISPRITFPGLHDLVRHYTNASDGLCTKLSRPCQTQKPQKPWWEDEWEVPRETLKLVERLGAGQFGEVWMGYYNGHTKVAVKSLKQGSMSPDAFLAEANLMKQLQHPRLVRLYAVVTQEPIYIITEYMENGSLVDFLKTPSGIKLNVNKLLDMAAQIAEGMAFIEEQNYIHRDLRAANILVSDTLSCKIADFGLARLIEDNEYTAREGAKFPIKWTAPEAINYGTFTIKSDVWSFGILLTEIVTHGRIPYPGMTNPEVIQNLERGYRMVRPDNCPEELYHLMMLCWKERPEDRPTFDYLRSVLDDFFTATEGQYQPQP

`O=C1[C@H](Cc2ccc(O)cc2)N=C(c2ccc(O)cc2)c2cc(Cl)ccc2N1Cc1ccc(-c2ccccc2)cc1` [L-Tyr,BnzPh, 7-chloro-1,3-dihydro-1-(-4-biphenylmethyl)-3-(-4-hydroxyphenylmethyl)-5-(4-hydroxyphenyl)-(2H)1,4-benzodiazepin-2-one] was tested, and the IC50 [1] was 73 µM, the Ki ([1]; Table 10, benzodiazepines as inhibitors of Src) was 20 µM and the mode of inhibition ([1]; against variable ATP or variable poly E4Y) was “mixed”. For the same compound, the IC50 [2] was 505 µM, the “HT-29 Growth” value ([3]; 28 μM) was “cytotoxic” and the activity at 3 µM ([3]; Homo sapiens, HT-29, 120 h, 3 μM) was 100 ± 10%. It also gave an activity at 14 µM ([3]; Homo sapiens, HT-29, 120 h, 14 μM) of 98 ± 9%, a Ki [4] of 50 µM and an IC50 [5] of 136 µM. It also gave a Ki ([5]; apparent value against variable poly E4Y) of 63 µM, an IC50 [6] of 450 µM and a Ki ([6]; apparent value) of 104 µM. The activity at 3 µM ([7]; Homo sapiens, Fibroblast, 120 h, 3 μM, viable cell count 5 days after plating) was 89 ± 6%, the activity at 14 µM ([7]; Homo sapiens, Fibroblast, 120 h, 14 μM, viable cell count 5 days after plating) was 97 ± 5% and the activity at 28 µM ([7]; Homo sapiens, Fibroblast, 120 h, 28 μM, viable cell count 5 days after plating) was 90 ± 4%. For the same compound, the “inhibition of growth of AFB-13 normal fibroblasts” value ([7]; same concentrations (up to 28 μM)) was “Less than 10%”, the “inhibition of colony formation of HT-29 colon adenocarcinoma cells” value ([8]; 28 μM) was “complete inhibition” and the activity at 3 µM ([8]; Homo sapiens, HT-29, 336 h, 3 μM, colonies ≥100 cells 14 days after plating) was 29%. It also gave an activity at 14 µM ([8]; Homo sapiens, HT-29, 336 h, 14 μM, colonies ≥100 cells 14 days after plating) of 8% and an activity at 28 µM ([8]; Homo sapiens, HT-29, 336 h, 28 μM, colonies ≥100 cells 14 days after plating) of 0%.
